Measurements: article PMC6149949, “Synthesis and Evaluation of Thiochroman-4-One Derivatives as Potential Leishmanicidal Agents” (Molecules : A Journal of Synthetic Chemistry and Natural …, 2017)

Legend:
[1] = tested on: intracellular amastigotes of Leishmania panamensis (MHOM/CO/87/UA140-EGFP strain); assay: In vitro antileishmanial activity on intracellular amastigotes (GFP, flow cytometry); format: cell-based; conditions: for SI (index of selectivity, IS = LC50/EC50): LC50 U-937 / EC50 L. panamensis amastigotes; for EC50: intracellular amastigotes of L. panamensis in U-937 cells, 72 h, mean ± SD
Method: Antileishmanial activity of compounds was determined according to the ability of the compound to reduce the infection by L. panamensis parasites. For this, the antileishmanial activity was tested on intracellular amastigotes of L. panamensis transfected with the green fluorescent protein gene (MHOM/CO/87/UA140-EGFP strain). Briefly, U-937 human cells at a density of 3 × 10^5 cells/mL in RPMI 1640 and 0.1 μg/mL of PMA (phorbol-12-myristate-13-acetate) were dispensed on 24-wells microplate and then infected with stationary phase growing L. panamensis promastigotes in 15:1 parasites per cell ratio. Plates were incubated at 34 °C and 5% CO2 for 3 h and then cells were washed twice with phosphate buffer solution (PBS) to eliminate not internalized parasites. Fresh RPMI-1640 was added into each well (1 mL) and plates were incubated again. After 24 h of infection, the RPMI-1640 medium was replaced by fresh culture medium containing each compound at four serial dilutions (50, 12.5, 3.125 and 0.78 μg/mL) and plates were then incubated at 37 °C and 5% CO2 during 72 h, then, cells were removed from the bottom plate with 100 μL of EDTA/Trypsin (250 mg) solution. The cells were centrifuged at 1100 rpm during 10 min at 4 °C, the supernatant was discarded and cells were washed with 1 mL of cold PBS and centrifuged at 1100 rpm for 10 min at 4 °C. Cells were washed two times employing PBS, as previously, and after the last wash, the supernatant was discarded and cells were suspended in 500 μL of PBS.
Cells were analyzed by flow cytometry employing a flow cytometer (cytomics FC 500MPL, Beckman Coulter. Pasadena, CA, USA) reading at 488 nm (exciting) and 525 nm (emitting) over an argon laser and counting 10,000 events. Infected cells were determined according the events for green fluorescence (parasites). All determinations for each compound and standard drug were carried out by triplicate, in two experiments. Infected cells exposed to control drug (amphotericin B) were used as control for antileishmanial activity (positive control) while infected cells incubated in absence of any compound or drug were used as control for infection (negative control). Nonspecific fluorescence was corrected by subtracting fluorescence of unstained cells. Determinations were done by triplicate in at least two independent experiments.
Antileishmanial activity was determined according reduction of percentage of fluorescent parasites determined according to the median fluorescence intensity (MFI), obtained for each experimental condition by cytometry. The parasite values for each concentration of compound were calculated by Equation (3), where the % of parasites in the control well, corresponds to 100% of parasites. % parasites = (MFI exposed parasites/MFI unexposed parasites) × 100(3)
Then, inhibition percentage was calculated with Equation (4):% inhibition of parasites = 100 − (% parasites)(4)
Results of antileishmanial activities were expressed as the median effective concentrations (EC50) measured by Probit method.

in vitro = conditions: human
Method: Cytotoxicity of the compounds was evaluated over human monocytes (U-937 ATCC CRL-1593.2) in exponential growing phase and, adjusted at 1 × 10^5 cells/mL in RPMI-1640 enriched with 10% fetal bovine serum (FBS). One hundred microliters of cell suspension were dispensed in each well of a 96-wells microplate and then, 100 μL of each compound or standard drug (amphotericin B) at four serial dilution concentrations (200, 50, 12.5 and 3.125 μg/mL) were added dissolved in pbs with 0.5% DMSO. Cell exposed to compounds or standard drugs were incubated 72 h at 37 °C and 5% of CO2. Cytotoxic activity of each compound was determined according to the effect on the cell viability by the MTT microenzymatic method in which 3-(4,5-dimethylthiazol-2-yl)- 2,5-diphenyltetrazolium bromide is reduced to a purple product named formazan by mitochondrial enzyme succinate dehydrogenase. Thus, 10 μL/well of MTT solution (5 mg/mL) were added to each well of exposed and unexposed cells, and plates were incubated at 37 °C, 5% CO2 during 3 h. The reaction was stopped by adding 100 μL/well of isopropanol with 50% and 10% of SDS (sodium dodecyl sulfate). The concentration of formazan was determined spectrophotometrically at 570 nm (Varioskan Flash Multimode Reader, Thermo Scientific, Waltham, MA, USA) and intensity of color (absorbance) was registered as O.D. Cells exposed to control drug (amphotericin B) were used as control for toxicity (positive control) while cell incubated in absence of any compound or drug were used as control for viability (negative control). Non-specific absorbance was corrected by subtracting absorbance (O.D) of the blank. Determinations were done by triplicate in at least two independent experiments.
Cytotoxicity was determined according to viability and mortality percentages obtained for each experimental condition (synthetized compounds, amphotericin B and culture medium). Results were expressed as the mean lethal concentrations (LC50), concentration necessary to kill 50% of cells, calculated by the parametric method of linear regression that permits doses-response analysis (Probit analysis).
Initially, viability percentages were calculated by Equation (1), where the O.D of control well, corresponds to 100% of viability. % viability = (O.D exposed cells/O.D unexposed cells) × 100(1)
Then, the percentage of cell growth inhibition was calculated using Equation (2):% inhibition = 100 − (% Viability)(2)
The toxicity was defined according to LC50 values, using the follow scale: Toxic; LC50 < 100 μM; moderately toxic; LC50 > 100 μM and <200 μM and potentially nontoxic; LC50 > 200 μM.

[2] = Leishmania panamensis, U-937, 72 h

SMILES: O=C1C=C(c2ccccc2)S(=O)(=O)c2ccccc21 [Compound 4h, 2-Phenyl-4H-thiochromen-4-one 1,1-dioxide]
- SI (index of selectivity, IS = LC50/EC50) [1]: >97.94
- EC50 [1, 2]: < 10 µM
- EC50 [1]: 7.56 ± 0.33 µM
- CC50 at 72 h (in vitro): > 740 µM

SMILES: O=C1C=C(c2ccc(C(F)(F)F)cc2)S(=O)(=O)c2ccccc21 [Compound 4i, 2-(4-(Trifluoromethyl)-phenyl)-4H-thiochromen-4-one 1,1-dioxide]
- SI (index of selectivity, IS = LC50/EC50) [1]: >80.97
- EC50 [1, 2]: < 10 µM
- EC50 [1]: 7.3 ± 1.6 µM
- CC50 at 72 h (in vitro): > 591 µM

SMILES: O=C1C=C(c2ccc(Cl)cc2)S(=O)(=O)c2ccccc21 [Compound 4k, 2-(4-Chlorophenyl)-4H-thiochromen-4-one 1,1-dioxide]
- SI (index of selectivity, IS = LC50/EC50) [1]: >87.70
- EC50 [1, 2]: < 10 µM
- EC50 [1]: 7.47 ± 0.75 µM
- CC50 at 72 h (in vitro): > 656 µM

SMILES: O=C1C=C(c2ccc(F)cc2)S(=O)(=O)c2ccccc21 [Compound 4l, 2-(4-Fluorophenyl)-4H-thiochromen-4-one 1,1-dioxide]
- EC50 [1, 2]: < 10 µM
- EC50 [1]: 6.72 ± 0.16 µM
- CC50 at 72 h (in vitro): > 694 µM

SMILES: O=C1C=C(c2ccc([N+](=O)[O-])cc2)S(=O)(=O)c2ccccc21 [Compound 4m, 2-(4-Nitrophenyl)-4H-thiochromen-4-one 1,1-dioxide]
- SI (index of selectivity, IS = LC50/EC50) [1]: >87.70
- EC50 [1, 2]: < 10 µM
- EC50 [1]: 7.23 ± 0.44 µM
- CC50 at 72 h (in vitro): > 634 µM
